Where “and” joins values, the source holds several entries; their conditions need not be identical. Equal entries are not always repeated.
Key:
[1] = tested on: RT-112; test: SIA, collagen I invasion; format: cell-based, human
Protocol: (§1) 1000—2500 cells/well in 100 μl were seeded in 96 well Corning® Spheroid microplate (CLS4520, Sigma-Aldrich) or in cell-repellent 96 well microplate (650,790, Greiner Bio-one). SIA and analysis was performed as described before. In brief: After spheroid formation (24 – 72 h after seeding), 70 µl medium was removed and replaced with the collagen mixture (2.5 mg/ml Pure Col Collagen I (Advanced Biomatrix)), DMEM 1x (from 10 × stock, Sigma, D2429) and 0.4% Sodium bicarbonate (Sigma, S8761)), resulting in a final collagen concentration of 1.75 mg/ml. Embedded spheroids were stimulated with bFGF (100 ng/ml if not otherwise stated), HGF (30 ng /ml) or EGF (20 ng/ml) and distance of invaded cells quantified 24 – 48 h after embedding. Compounds and BGJ398 were added in Dimethylsulfoxid (DMSO) and corresponding DMSO concentrations were used in control samples.

[2] = tested on: DAOY siFRS2 cells; test: SIA, bFGF-induced collagen I invasion in FRS2-depleted cells; format: cell-based, human
Protocol: as §1
siFRS2 in DAOY cells: 50,000 cells/well in 2 ml medium were seeded in 6 well plates and incubated at 37 °C, 5% CO2. The following day cells were transfected with 10 nM siRNA (5 nM Silencer Select, 5 nM Stealth RNAi siRNA) using Lipofectamin RNAiMAX Transfection Reagent (13,778,075; Invitrogen) and Opti-MEM® medium (15,392,402; Gibco). After 6 h, the medium was exchanged with fresh complete medium and further processed for the SIA protocol.

[3] = mouse, in vivo
Protocol: […]. Animals received an initial dose of 30 mg/kg. If the animals had no significant adverse effects within 60 min after treatment, the dose for the next cohort was increased. If one or more animals died or had significant adverse effects within 60 min after treatment, the dose for the next cohort was decreased. The testing stopped when all animals survived at the upper bound (200 mg/kg), or lower bound (3 mg/kg) had been reached. Full clinical examinations and body weight change were assessed. At each dose level, animals were observed, and mortality was noted daily after compound administration for three days. […] Body weights were recorded pre-dose and at 72 h.
The next dose level was determined by the following scheme: • 30 mg/kg, if no death, 100 mg/kg, if no death, 200 mg/kg (upper bound) • 30 mg/kg, if no death, 100 mg/kg, if death, 50 mg/kg • 30 mg/kg, if death, 10 mg/kg, if death, 3 mg/kg (lower bound) • 30 mg/kg, if death, 10 mg/kg, if no death, 17 mg/kg

[4] = In vivo PK of 7 (30, 100, 200 mg/kg PO), plasma and liver exposure; design: species or system ICR mice; settings: both sexes, ICR, mouse, plasma, 0.5 h after administration, read-out: plasma concentration reached
Protocol: In vivo PK studies were performed by Pharmacology Discovery Services Taiwan (New Taipei City, Taiwan). 7 (30, 100, and 200 mg/kg, PO) was further administered to groups of 2 male and 2 female (23 ± 3 g) satellite ICR mice in PK study; the plasma and liver samples were harvested at 0.5 h after administration. In addition, one additional group was dosed at 30 mg/kg and the plasma samples were harvested at 1 and 2 h(s) after the treatment. The body and liver weights were recorded. The exposure levels (ng/ml or ng/g) of 7 in plasma and liver samples were then determined by Liquid Chromatograph Tandem Mass Spectrometer (LC–MS/MS), and the plasma: liver ratios were calculated.

[5] = biological target: T1, FRS2 (Homo sapiens, UniProt Q8WU20); test: CETSA by IB, cell lysates; format: binding; settings: DAOY lysates
T1 construct: we used the cellular thermal shift assay (CETSA [36]) in DAOY cells; endogenous in cells; host or cells: DAOY cells (intact cells, or freeze-thaw lysates)
T1 sequence (Q8WU20 whole entry): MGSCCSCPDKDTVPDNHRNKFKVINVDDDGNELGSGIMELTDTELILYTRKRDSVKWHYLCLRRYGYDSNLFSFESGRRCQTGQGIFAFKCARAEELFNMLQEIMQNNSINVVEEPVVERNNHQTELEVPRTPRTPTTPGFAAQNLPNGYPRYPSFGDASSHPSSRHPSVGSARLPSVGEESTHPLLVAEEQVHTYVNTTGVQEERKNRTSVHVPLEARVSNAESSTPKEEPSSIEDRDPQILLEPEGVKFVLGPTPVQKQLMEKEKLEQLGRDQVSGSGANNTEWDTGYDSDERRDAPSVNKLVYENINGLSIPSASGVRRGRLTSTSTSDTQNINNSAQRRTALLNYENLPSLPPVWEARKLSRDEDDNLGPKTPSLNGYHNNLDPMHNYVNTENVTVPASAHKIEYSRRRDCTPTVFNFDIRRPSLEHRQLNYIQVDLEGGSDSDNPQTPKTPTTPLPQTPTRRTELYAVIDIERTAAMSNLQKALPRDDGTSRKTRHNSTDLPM
Protocol: Four 15 cm dishes with 0.5 × 10^6 DAOY cells per dish were grown in full medium o.n. Medium was then removed, cells washed with PBS, detached using trypsin, collected in regular growth medium, centrifuged (300 g, 25 °C, 5 min), washed with PBS and resuspended in 550 µl ice-cold PBS. Cells were lysed with three freeze–thaw cycles (freeze in liquid N2, thaw in 25 °C heat block, vortex quickly) and lysates were placed in aliquots of 250 µl on ice. Compound or solvent was added to 10 µM final concentration and samples were incubated 20 min at 4 °C under rotation. Ten 20 µl aliquots were dispensed in a pre-cooled PCR plate, which was sealed with aluminum foil and placed on ice until heat treatments. Heat treatment was performed in a gradient PCR machine with the following temperatures 40.5, 43.6, 46.2, 48.8. 51.2, 53.8, 56.4, 58.3, 61.7 and 73.8 °C for three min. Plate with samples was kept at RT for 3 min and then kept on ice until centrifugation for 2 min at 500 × g at RT.
Samples were incubated 1 h at 4 °C, with shaking at 500 rpm. Samples are filtered using a MultiScreenHTS HV-Filterplate (Merck, MSHVN4510). Membrane wells were prewetted with 50 µl PBS and centrifuged at 2000 g, RT, 3 min. The lysates were centrifuged at 2000 g, RT, 3 min and 40 µl of each supernatant was transferred to the filterplate and centrifuged at 500 g at RT for 5 min. […]

[6] = tested on: AKT(pS473); test: Immunoblotting, AKT phosphorylation; format: cell-based, human; settings: SW780 cells
Protocol: Cells were serum starved o.n. and 10 µM compound or 1 µM (BGJ398) were added 3 h before stimulation with 100 ng/ml bFGF for 15 min. Cells were lysed in RIPA buffer containing protease inhibitor cocktail and lysates resolved by SDS-PAGE. Membranes were probed with primary antibodies against phospho-FRS2, FRS2, phospho-ERK1/2, ERK1/2, pAKT, AKT and tubulin. Integrated density of immuno-reactive bands was quantified using Adobe Photoshop CS3. Integrated densities of phospho bands relative to non-phospho bands of same protein were calculated and plotted as fold-change relative to untreated control conditions. Compounds and BGJ398 were added in DMSO and corresponding DMSO concentrations were used in control samples.

O=[N+]([O-])c1c(Cl)cc(O)c2c1C1C=CCC1C(c1ccc(Cl)cc1)N2 (centres unmarked) [Compound 7]
EC50 ([1]; Homo sapiens, RT-112): 1.06 µM | basal and ligand-induced collagen I invasion (result in words) ([1]; RT-112 (FGFR3-TACC3 fusion)): reduced both basal and ligand-induced collagen I invasion | IC50 ([2]; Homo sapiens, DAOY siFRS2 (reduced FRS2)): 7.96 µM | increase of IC50 in cells with reduced FRS2 compared to control ([2]; siFRS2 vs siCTL): more than 2.5 fold | single-dose tolerability (result in words) [3]: No mortality and body weight loss was observed | concentration at 0.5 h [4]: 10000 ng/mL and > 20 µM | ΔTm at 10 µM [5]: -4.93 °C

Cc1[nH]nc(-c2ccc(O)c(C)c2O)c1-c1nc2ccccc2s1 [Compound E12]
pAKT (result in words) [6]: increase in pAKT

From paper PMC10060354, “Discovery of a small molecule ligand of FRS2 that inhibits invasion and tumor growth” (Cellular Oncology, 2022)
